Source: ChEMBL document CHEMBL1156264, “Synthesis and structure-activity relationships of dimeric peptide antagonists of the human immunoglobulin G-human neonatal Fc receptor (IgG-FcRn) interaction” (J Med Chem, 2010)
Numbered stars: 1 amine (or outer) side, 2 acyl side, 3 side chain; on linkers, the order of the positions; unused ones are H or OH. Bridge positions count the residues as written; N and C are the ends. Square brackets hold non-standard residues; d marks the D form. Peptide text beside a SMILES is read from it. I, II: the chains in the order shown. X3 = CN(CCCNC(=O)CCNC(=O)CCSCC(=O)[*:1])CCCNC(=O)CCNC(=O)CCSCC(=O)[*:2]; Phe(4-guanidino) = N=C(N)Nc1ccc(C[C@H](N)C(=O)O)cc1; X1 = O=C(C(=O)[*:2])[C@H](Cc1ccc(O)cc1)N[*:1]; NMeL = CN[C@@H](CC(C)C)C(=O)O; Pen = CC(C)(S)[C@H](N)C(=O)O; Suc = O=C(CCC(=O)[*:2])[*:1]; X2 = C(CN[*:1])NCCN[*:2]; Sar = CNCC(=O)O

Target: T1, IgG receptor FcRn large subunit p51 (Homo sapiens, UniProt P55899)
T1 sequence (P55899 whole entry): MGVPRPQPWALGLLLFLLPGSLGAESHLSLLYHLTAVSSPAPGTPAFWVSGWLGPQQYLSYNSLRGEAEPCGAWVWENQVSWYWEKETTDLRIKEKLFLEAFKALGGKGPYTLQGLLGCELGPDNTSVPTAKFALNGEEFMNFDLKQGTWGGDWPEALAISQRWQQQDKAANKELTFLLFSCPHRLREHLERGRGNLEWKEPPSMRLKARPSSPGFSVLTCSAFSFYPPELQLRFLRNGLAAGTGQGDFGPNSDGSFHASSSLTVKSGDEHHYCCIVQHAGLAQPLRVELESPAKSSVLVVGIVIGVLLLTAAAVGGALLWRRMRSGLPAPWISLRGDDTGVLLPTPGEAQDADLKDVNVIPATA
Test: Ratio of RF-Pen-TGHFG-Sar-NMeLeu-YPC IC50 to compound IC50 for soluble human FcRn

In order of rising Ratio IC50:
1. CC(C)C[C@H]1C(=O)N[C@@H](Cc2ccc(O)cc2)C(=O)C(=O)N2CCC[C@H]2C(=O)N[C@H](C(N)=O)CSSC(C)(C)[C@H](NC(=O)[C@H](Cc2ccccc2)NC(=O)[C@H](CCCNC(=N)N)NC(=O)CN(C)CC(=O)N[C@@H](CCCNC(=N)N)C(=O)N[C@@H](Cc2ccccc2)C(=O)N[C@@H]2C(=O)N[C@@H]([C@@H](C)O)C(=O)NCC(=O)N[C@@H](Cc3c[nH]cn3)C(=O)N[C@@H](Cc3ccccc3)C(=O)NCC(=O)N(C)CC(=O)N(C)[C@@H](CC(C)C)C(=O)N[C@@H](Cc3ccc(O)cc3)C(=O)C(=O)N3CCC[C@H]3C(=O)N[C@H](C(N)=O)CSSC2(C)C)C(=O)N[C@@H]([C@@H](C)O)C(=O)NCC(=O)N[C@@H](Cc2c[nH]cn2)C(=O)N[C@@H](Cc2ccccc2)C(=O)NCC(=O)N(C)CC(=O)N1C  110
2. CC(C)C[C@H]1C(=O)N[C@@H](Cc2ccc(O)cc2)C(=O)C(=O)N2CCC[C@H]2C(=O)N[C@H](C(N)=O)CSSC(C)(C)[C@H](NC(=O)[C@H](Cc2ccccc2)NC(=O)[C@H](CCCNC(=N)N)NC(=O)CCOCCOCCOCCOCCOCCC(=O)N[C@@H](CCCNC(=N)N)C(=O)N[C@@H](Cc2ccccc2)C(=O)N[C@@H]2C(=O)N[C@@H]([C@@H](C)O)C(=O)NCC(=O)N[C@@H](Cc3c[nH]cn3)C(=O)N[C@@H](Cc3ccccc3)C(=O)NCC(=O)N(C)CC(=O)N(C)[C@@H](CC(C)C)C(=O)N[C@@H](Cc3ccc(O)cc3)C(=O)C(=O)N3CCC[C@H]3C(=O)N[C@H](C(N)=O)CSSC2(C)C)C(=O)N[C@@H]([C@@H](C)O)C(=O)NCC(=O)N[C@@H](Cc2c[nH]cn2)C(=O)N[C@@H](Cc2ccccc2)C(=O)NCC(=O)N(C)CC(=O)N1C  110
3. CC(C)C[C@H]1C(=O)N[C@@H](Cc2ccc(O)cc2)C(=O)C(=O)N2CCC[C@H]2C(=O)N[C@H](C(=O)NCC(=O)NCCNCCNC(=O)CNC(=O)[C@@H]2CSSC(C)(C)[C@H](NC(=O)[C@H](Cc3ccccc3)NC(=O)[C@@H](N)CCCNC(=N)N)C(=O)N[C@@H]([C@@H](C)O)C(=O)NCC(=O)N[C@@H](Cc3c[nH]cn3)C(=O)N[C@@H](Cc3ccccc3)C(=O)NCC(=O)N(C)CC(=O)N(C)[C@@H](CC(C)C)C(=O)N[C@@H](Cc3ccc(O)cc3)C(=O)C(=O)N3CCC[C@H]3C(=O)N2)CSSC(C)(C)[C@H](NC(=O)[C@H](Cc2ccccc2)NC(=O)[C@@H](N)CCCNC(=N)N)C(=O)N[C@@H]([C@@H](C)O)C(=O)NCC(=O)N[C@@H](Cc2c[nH]cn2)C(=O)N[C@@H](Cc2ccccc2)C(=O)NCC(=O)N(C)CC(=O)N1C (I: H-RF[Pen]TGHFG[Sar][NMeL][X1]PCG / II: H-RF[Pen]TGHFG[Sar][NMeL][X1]PCG; disulfide I:3-I:13, II:3-II:13; linker I:C-II:C via X2)  120

Target: T1, IgG receptor FcRn large subunit p51
Test: Inhibition of IgG binding to soluble human FcRn after 2 hrs by competition ELISA

In order of rising IC50:
1. CC(C)C[C@H]1C(=O)N[C@@H](Cc2ccc(O)cc2)C(=O)C(=O)N2CCC[C@H]2C(=O)N[C@H](C(N)=O)CSSC(C)(C)[C@H](NC(=O)[C@H](Cc2ccccc2)NC(=O)[C@H](CCCNC(=N)N)NC(=O)CCNC(=O)CCNC(=O)CCNC(=O)CN(C)CCNC(=O)CCC(=O)N[C@@H](CCCNC(=N)N)C(=O)N[C@@H](Cc2ccccc2)C(=O)N[C@@H]2C(=O)N[C@@H]([C@@H](C)O)C(=O)NCC(=O)N[C@@H](Cc3cnc[nH]3)C(=O)N[C@@H](Cc3ccccc3)C(=O)NCC(=O)N(C)CC(=O)N(C)[C@@H](CC(C)C)C(=O)N[C@@H](Cc3ccc(O)cc3)C(=O)C(=O)N3CCC[C@H]3C(=O)N[C@H](C(N)=O)CSSC2(C)C)C(=O)N[C@@H]([C@@H](C)O)C(=O)NCC(=O)N[C@@H](Cc2cnc[nH]2)C(=O)N[C@@H](Cc2ccccc2)C(=O)NCC(=O)N(C)CC(=O)N1C  2.4 nM
2. CC(C)C[C@H]1C(=O)N[C@@H](Cc2ccc(O)cc2)C(=O)C(=O)N2CCC[C@H]2C(=O)N[C@H](C(N)=O)CSSC(C)(C)[C@H](NC(=O)[C@H](Cc2ccccc2)NC(=O)[C@H](CCCNC(=N)N)NC(=O)CCC(=O)NCCN(C)CC(=O)N[C@@H](CCCNC(=N)N)C(=O)N[C@@H](Cc2ccccc2)C(=O)N[C@@H]2C(=O)N[C@@H]([C@@H](C)O)C(=O)NCC(=O)N[C@@H](Cc3cnc[nH]3)C(=O)N[C@@H](Cc3ccccc3)C(=O)N[C@H]3CCCN(CC(=O)N(C)[C@@H](CC(C)C)C(=O)N[C@@H](Cc4ccc(O)cc4)C(=O)C(=O)N4CCC[C@H]4C(=O)N[C@H](C(N)=O)CSSC2(C)C)C3=O)C(=O)N[C@@H]([C@@H](C)O)C(=O)NCC(=O)N[C@@H](Cc2cnc[nH]2)C(=O)N[C@@H](Cc2ccccc2)C(=O)N[C@H]2CCCN(CC(=O)N1C)C2=O  3.9 nM
3. CC(C)C[C@H]1C(=O)N[C@@H](Cc2ccc(O)cc2)C(=O)C(=O)N2CCC[C@H]2C(=O)N[C@H](C(N)=O)CSSC(C)(C)[C@H](NC(=O)[C@H](Cc2ccccc2)NC(=O)[C@H](CCCNC(=N)N)NC(=O)CN(C)CC(=O)N[C@@H](CCCNC(=N)N)C(=O)N[C@@H](Cc2ccccc2)C(=O)N[C@@H]2C(=O)N[C@@H]([C@@H](C)O)C(=O)NCC(=O)N[C@@H](Cc3cnc[nH]3)C(=O)N[C@@H](Cc3ccccc3)C(=O)NCC(=O)N(C)CC(=O)N(C)[C@@H](CC(C)C)C(=O)N[C@@H](Cc3ccc(O)cc3)C(=O)C(=O)N3CCC[C@H]3C(=O)N[C@H](C(N)=O)CSSC2(C)C)C(=O)N[C@@H]([C@@H](C)O)C(=O)NCC(=O)N[C@@H](Cc2cnc[nH]2)C(=O)N[C@@H](Cc2ccccc2)C(=O)NCC(=O)N(C)CC(=O)N1C  4.7 nM
4. CC(C)C[C@H]1C(=O)N[C@@H](Cc2ccc(O)cc2)C(=O)C(=O)N2CCC[C@H]2C(=O)N[C@H](C(N)=O)CSSC(C)(C)[C@H](NC(=O)[C@H](Cc2ccccc2)NC(=O)[C@H](CCCNC(=N)N)NC(=O)CCC(=O)N[C@@H](CCCNC(=N)N)C(=O)N[C@@H](Cc2ccccc2)C(=O)N[C@@H]2C(=O)N[C@@H]([C@@H](C)O)C(=O)NCC(=O)N[C@@H](Cc3ccc(N=C(N)N)cc3)C(=O)NCC(=O)N(C)CC(=O)N(C)[C@@H](CC(C)C)C(=O)N[C@@H](Cc3ccc(O)cc3)C(=O)C(=O)N3CCC[C@H]3C(=O)N[C@H](C(N)=O)CSSC2(C)C)C(=O)N[C@@H]([C@@H](C)O)C(=O)NCC(=O)N[C@@H](Cc2ccc(N=C(N)N)cc2)C(=O)NCC(=O)N(C)CC(=O)N1C (I: RF[Pen]TG[Phe(4-guanidino)]G[Sar][NMeL][X1]PC-NH2 / II: RF[Pen]TG[Phe(4-guanidino)]G[Sar][NMeL][X1]PC-NH2; disulfide I:3-I:12, II:3-II:12; linker I:N-II:N via Suc)  20 nM
5. CC(C)C[C@H]1C(=O)N[C@@H](Cc2ccc(O)cc2)C(=O)C(=O)N2CCC[C@H]2C(=O)N[C@H](C(=O)N[C@@H](CC(N)=O)C(=O)NCC(=O)N2CCC[C@H]2C(N)=O)CCCCNC(=O)C[C@H](NC(=O)[C@H](Cc2ccccc2)NC(=O)CSCCC(=O)NCCC(=O)NCCCN(C)CCCNC(=O)CCNC(=O)CCSCC(=O)N[C@@H](CCC(N)=O)C(=O)N[C@@H](CCCNC(=N)N)C(=O)N[C@@H](Cc2ccccc2)C(=O)N[C@H]2CC(=O)NCCCC[C@@H](C(=O)N[C@@H](CC(N)=O)C(=O)NCC(=O)N3CCC[C@H]3C(N)=O)NC(=O)[C@@H]3CCCN3C(=O)C(=O)[C@H](Cc3ccc(O)cc3)NC(=O)[C@H](CC(C)C)N(C)C(=O)CN(C)C(=O)CNC(=O)[C@H](Cc3ccccc3)NC(=O)[C@H](Cc3cnc[nH]3)NC(=O)CNC(=O)[C@H]([C@@H](C)O)NC2=O)C(=O)N[C@@H]([C@@H](C)O)C(=O)NCC(=O)N[C@@H](Cc2cnc[nH]2)C(=O)N[C@@H](Cc2ccccc2)C(=O)NCC(=O)N(C)CC(=O)N1C (I: QRFDTGHFG[Sar][NMeL][X1]PKNGP-NH2 / II: FDTGHFG[Sar][NMeL][X1]PKNGP-NH2; lactam I:4-I:14, II:2-II:12; linker I:N-II:N via X3)  2400 nM
